# Source: patent publication US5393768A, “Leukotriene antagonists” (Eli Lilly and Company, priority 1993, dated 1995)
# Legend:
# [1] = target: T1, LTD4 evoked contractions of guinea pig ileum (Cavia porcellus, UniProt Q2NNR5); assay: LTD4 antagonism, cumulative concentration-response curves (Schild pA2); type: cell-based; details: 30 minute incubation, negative log of KB
# T1 construct: A section of terminal ileum was removed, the lumen cleaned, and the tissue divided into 2.5 cm. segments; from tissue; host or cells: terminal ileum of male Hartley guinea pigs
# T1 sequence (Q2NNR5 1-340): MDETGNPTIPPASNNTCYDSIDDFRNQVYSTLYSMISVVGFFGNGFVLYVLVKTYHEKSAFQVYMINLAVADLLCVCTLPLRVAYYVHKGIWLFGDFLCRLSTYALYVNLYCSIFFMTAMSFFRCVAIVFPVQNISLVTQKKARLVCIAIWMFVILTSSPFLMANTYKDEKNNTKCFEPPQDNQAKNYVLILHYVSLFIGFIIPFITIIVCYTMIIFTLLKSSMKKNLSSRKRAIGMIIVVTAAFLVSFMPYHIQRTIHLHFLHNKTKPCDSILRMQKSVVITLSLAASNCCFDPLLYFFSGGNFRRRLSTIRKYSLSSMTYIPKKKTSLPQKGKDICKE
# Procedure: For some of the drugs in this series a more detailed analysis of LTD4 antagonism was made. In these experiments, cumulative concentration-response curves were obtained to LTD4 in guinea pig ileum and trachea. This was followed by a 30 minute incubation with various concentrations of the experimental drug. The concentration response curve to LTD4 was then repeated in the presence of the antagonist. Only one concentration of antagonist was used on a single tissue. KB values were calculated by the method of Furchgott [Ann. N.Y. Acad. Sci., 139, 553 (1967)] using the following equation. [formula]
# Dose ratio refers to the concentration of agonist required to elicit 50 percent of the maximal response (ED50) in the presence of the antagonist divided by the ED50 in the absence of the antagonist. Calculations were performed with the aid of a computer and a digital plotter.
# [2] = test system: LTD4 evoked contractions of guinea pig ileum; assay: Percent inhibition of LTD4 evoked ileal contractions (single submaximal LTD4 response, 5 minute drug exposure); type: cell-based, guinea pig (male, Hartley); details: Cavia porcellus
# Procedure: Male, Hartley guinea pigs weighing 200-450 grams were killed by decapitation. A section of terminal ileum was removed, the lumen cleaned, and the tissue divided into 2.5 cm. segments. The ilea were mounted in 10 ml. tissue baths containing Krebs-bicarbonate solution of the following composition in mmoles/-liter: KCl, 4.6; CaCl2 ·2H2 O, 1.2; KH2 PO4, 1.2; MgSO4 ·7H2 O, 1.2; NaCl, 118.2; NaHCO3, 24.8; and dextrose, 10.0. The bath fluid was maintained at 37° C. and aerated with 95 percent oxygen and 5 percent CO2. In addition, the buffer contained 1×10^-6 M atropine to reduce ileal spontaneous activity. Isometric measurements were made with a Grass FTO3C force-displacement transducer and recorded on a Grass polygraph as change in grams of force. A passive force of 0.5 g. was applied to the tissues. After an appropriate equilibration period, single submaximal control responses to pure LTD4 were obtained. Following a five minute exposure of the ileum to an experimental drug, the control concentration of LTD was added to the tissue bath. The response of the ileum to LTD4 in the presence of the drug was compared to the response in the absence of the drug.
compound,measurement,setting,value
"CCCc1c(C[S+]([O-])Cc2ccc(-c3nnn[nH]3)cc2)ccc(C(C)=O)c1O (stereo not shown) [Example 53, 5-[4-(4-Acetyl-3-hydroxy-2-propylbenzylsulfinylmethyl)phenyl]-tetrazole]",Kb,[1],6.31 µM
same,inhibition at 0.1 µM,[2]; Compound concentration 1 × 10^-7 M,14%
same,inhibition at 3 µM,[2]; Compound concentration 3 × 10^-6 M,39%
same,inhibition at 0.3 µM,[2]; Compound concentration 3 × 10^-7 M,4%
